For test [1], the target named is T1, FLT3 (Homo sapiens, UniProt P36888).
T1 construct: purchased Reaction Biology (RBC HotSpot Kinase Assay)
T1 sequence (P36888 564-958 limits assumed): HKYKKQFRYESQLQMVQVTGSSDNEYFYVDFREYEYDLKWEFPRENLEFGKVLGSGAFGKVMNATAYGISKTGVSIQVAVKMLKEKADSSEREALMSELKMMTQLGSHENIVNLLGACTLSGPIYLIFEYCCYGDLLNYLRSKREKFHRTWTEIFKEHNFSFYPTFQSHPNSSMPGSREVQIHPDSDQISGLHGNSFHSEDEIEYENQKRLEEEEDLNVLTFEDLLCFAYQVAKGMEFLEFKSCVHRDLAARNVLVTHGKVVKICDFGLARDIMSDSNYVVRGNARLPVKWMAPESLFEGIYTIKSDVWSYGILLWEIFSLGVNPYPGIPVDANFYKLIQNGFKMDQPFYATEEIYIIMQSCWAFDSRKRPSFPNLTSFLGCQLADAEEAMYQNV
As to the kind of experiment: RBC HotSpot Kinase Assay, FLT3. Type of test: biochemical. Summed up: (§1)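 Radiometric filter-binding (HotSpot) activity assay on isolated recombinant kinase, possibly truncated or catalytic domain only, in 20 mM Hepes pH 7.5, 10 mM MgCl2, 1 mM EGTA, 2 mM DTT, 1% DMSO. Compound preincubated 20 min with kinase and substrate, then ^33P-ATP added. Reaction 2 h at room temperature, read by P81 filter binding.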

The target in test [2] is T2, IRAK1 (Homo sapiens, UniProt P51617).
T2 construct: purchased Reaction Biology (RBC HotSpot Kinase Assay)
T2 sequence (P51617 whole entry): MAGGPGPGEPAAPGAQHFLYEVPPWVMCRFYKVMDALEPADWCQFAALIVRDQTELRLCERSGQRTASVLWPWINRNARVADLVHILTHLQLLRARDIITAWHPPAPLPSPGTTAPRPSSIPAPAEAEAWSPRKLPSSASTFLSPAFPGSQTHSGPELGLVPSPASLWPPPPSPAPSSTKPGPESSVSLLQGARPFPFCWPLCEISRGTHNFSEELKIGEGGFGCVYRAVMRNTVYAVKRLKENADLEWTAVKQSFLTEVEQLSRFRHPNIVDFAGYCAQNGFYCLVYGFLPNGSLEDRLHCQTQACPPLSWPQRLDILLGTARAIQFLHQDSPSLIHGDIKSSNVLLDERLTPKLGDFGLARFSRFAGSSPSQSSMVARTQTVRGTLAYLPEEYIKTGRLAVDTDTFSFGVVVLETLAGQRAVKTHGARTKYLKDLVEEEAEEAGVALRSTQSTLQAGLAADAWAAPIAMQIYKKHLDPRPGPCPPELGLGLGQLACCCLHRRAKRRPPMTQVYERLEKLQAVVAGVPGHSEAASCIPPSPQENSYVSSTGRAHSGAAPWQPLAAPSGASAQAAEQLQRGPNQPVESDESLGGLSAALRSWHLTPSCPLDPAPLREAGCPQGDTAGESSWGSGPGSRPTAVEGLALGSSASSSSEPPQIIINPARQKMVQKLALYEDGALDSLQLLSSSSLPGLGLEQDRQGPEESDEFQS
As to the kind of experiment: RBC HotSpot Kinase Assay, IRAK1. Type of test: biochemical. Summed up:
as §1

Test [3] concerns the target T3, IRAK4 (Homo sapiens, UniProt Q9NWZ3).
T3 sequence (Q9NWZ3 1-460): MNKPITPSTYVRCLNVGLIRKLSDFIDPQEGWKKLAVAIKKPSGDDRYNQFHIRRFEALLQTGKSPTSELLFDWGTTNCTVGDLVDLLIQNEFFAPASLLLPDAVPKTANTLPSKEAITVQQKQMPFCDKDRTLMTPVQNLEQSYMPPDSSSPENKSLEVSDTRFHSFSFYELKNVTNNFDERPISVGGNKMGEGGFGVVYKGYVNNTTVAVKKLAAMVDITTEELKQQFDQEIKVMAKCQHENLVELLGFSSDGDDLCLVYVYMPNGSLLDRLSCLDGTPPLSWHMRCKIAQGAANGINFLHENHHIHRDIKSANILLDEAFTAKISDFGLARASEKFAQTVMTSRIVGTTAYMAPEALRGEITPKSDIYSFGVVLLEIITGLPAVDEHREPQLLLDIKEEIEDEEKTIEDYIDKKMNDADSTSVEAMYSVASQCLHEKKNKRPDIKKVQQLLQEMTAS
As to the kind of experiment: RBC HotSpot Kinase Assay, IRAK4. Details: purchased Reaction Biology (RBC HotSpot Kinase Assay). Type of test: biochemical. Summed up: as §1

Test [4] deals with MOLM14 F691L cells. The experiment in a line: MOLM14 F691L cell viability assay (Cell Titer Glo). Type of test: cell-based. How it is done:
(§2) Both cell lines have activated FLT3 receptors, each of which carry additional resistance mutations in the kinase domain (D835Y and F691L, respectively).
(§3) MOLM14 D835Y and MOLM14 F691L cells were grown in RPMI-1640 media supplemented with 20% fetal bovine serum (FBS). For viability/cytotoxicity assessments, cells were seeded into 1536-well white polystyrene tissue culture-treated Greiner plates using a Multidrop Combi dispenser (ThermoFisher), in final volume 5 μL of growth media per well, at a density of 1000 cells per well. After cell addition, 23 nL of test compound were transferred into individual wells (22 doses tested for each test compound, with a 1:2 dilution series starting at 10 μM) via a 1536 pin-tool. Bortezomib (final concentration 2.3 μM) was used as a positive control for cell cytotoxicity. Plates were incubated for 48 hours at standard incubator conditions covered by a stainless steel gasketed lid to prevent evaporation. 48 hours post compound addition, 3 μL of Cell Titer Glo (Promega) were added to each well and plates were incubated at room temperature for 15 minutes with the stainless-steel lid in place. Luminescence readings were taken using a Viewlux imager (PerkinElmer) with a 2 second exposure time per plate.
Background: Cellular ATP, detected with luciferase, serves as a proxy for viable cell number.

Test [5] has as its system MOLM14 D835Y cells. As to the kind of experiment: MOLM14 D835Y cell viability assay (Cell Titer Glo). Type of test: cell-based. How it is done: as §2, §3

In US12534469B2 (CHILDREN'S HOSPITAL MEDICAL CENTER, priority 2020, dated 2026) one finds IC50 data, which are given here for 18 molecules.

Take `COc1cc2ncc(-c3cccc(N[C@H]4CNCC[C@@H]4F)n3)n2nc1-c1cnn(C)c1` [Compound 122, N-((3S,4S)-4-fluoropiperidin-3-yl)-6-(7-methoxy-6-(1-methyl-1H-pyrazol-4-yl)imidazo[1,2-b]pyridazin-3-yl)pyridin-2-amine]: the IC50 in test [1] was found to be 0.7 nM; in test [2] it was 537 nM; in test [3] it was 37 nM; in test [4] (Homo sapiens, MOLM-14, 48 h), 686 nM; in test [5] (Homo sapiens, MOLM-14, 48 h), 49 nM.

For the molecule `COc1cc2ncc(-c3cccc(N[C@H]4CNCC[C@@H]4F)n3)n2nc1C(C)(O)C(F)(F)F` (single isomer, unassigned; slow-eluting) [Compound 136], the half-inhibitory concentration (IC50) in test [1] is under 0.5 nM; in test [2] it was 3140 nM; in test [3], 10 nM; in test [4] (48 hours), 344 nM; in test [5] (48 hours) it was 31 nM.

As to `F[C@H]1CNC[C@@H]1Nc1cccc(-c2cnc3cccnn23)n1` [Compound 109, N-((3S,4S)-4-fluoropyrrolidin-3-yl)-6-(imidazo[1,2-b]pyridazin-3-yl)pyridin-2-amine], the IC50 in test [1] is 9 nM; in test [2], over 10000 nM; in test [3], 399 nM; in test [5] (Homo sapiens, MOLM-14, 48 h), 968 nM.

In the case of `COc1cc2ncc(-c3cccc(N[C@H]4CNC[C@@H]4C)n3)n2nc1C1(C(F)(F)F)CC1` [Compound 83, 6-(7-methoxy-6-(1-(trifluoromethyl)cyclopropyl)imidazo[1,2-b]pyridazin-3-yl)-N-((3R,4S)-4-methylpyrrolidin-3-yl)pyridin-2-amine], the IC50 is 0.8 nM in test [1]; 3670 nM in test [2]; 25 nM in test [3]; 259 nM in test [5] (Homo sapiens, MOLM-14, 48 h).

As to `COc1cc2ncc(-c3cccc(N[C@H]4CNCC[C@@H]4F)n3)n2nc1-c1cn[nH]c1` [Compound 120, N-((3S,4S)-4-fluoropiperidin-3-yl)-6-(7-methoxy-6-(1H-pyrazol-4-yl)imidazo[1,2-b]pyridazin-3-yl)pyridin-2-amine], the IC50 is under 0.5 nM in test [1]; 85 nM in test [2]; under 0.5 nM in test [3]; 275 nM in test [4] (Homo sapiens, MOLM-14, 48 h); 20 nM in test [5] (Homo sapiens, MOLM-14, 48 h).

As to `COc1cc2ncc(-c3cccc(N[C@H]4CNC[C@@H]4F)n3)n2nc1C1(C(F)(F)F)CC1` [Compound 82, N-((3S,4S)-4-fluoropyrrolidin-3-yl)-6-(7-methoxy-6-(1-(trifluoromethyl)cyclopropyl)imidazo[1,2-b]pyridazin-3-yl)pyridin-2-amine], the IC50 worked out at 1 nM in test [1]; 595 nM in test [2]; 18 nM in test [3]; 357 nM in test [5] (Homo sapiens, MOLM-14, 48 h).

Consider `F[C@H]1CNCC[C@@H]1Nc1cccc(-c2cnc3ccc(-c4cnn5ccccc45)nn23)n1` [Compound 20, N-((3S,4S)-3-fluoropiperidin-4-yl)-6-(6-(pyrazolo[1,5-a]pyridin-3-yl)imidazo[1,2-b]pyridazin-3-yl)pyridin-2-amine], for which the IC50 in test [1] is under 0.5 nM; in test [2], 3 nM; in test [3], under 0.5 nM; in test [5] (Homo sapiens, MOLM-14, 48 h), 333 nM.

As to `F[C@H]1CNC[C@@H]1Nc1cccc(-c2cnc3cc(Cl)cnn23)n1` [Compound 110, 6-(7-chloroimidazo[1,2-b]pyridazin-3-yl)-N-((3S,4S)-4-fluoropyrrolidin-3-yl)pyridin-2-amine], the IC50 in test [1] was 6 nM; in test [2], 3710 nM; in test [3], 190 nM; in test [5] (Homo sapiens, MOLM-14, 48 h) it was 591 nM.

Consider `COc1cc2ncc(-c3cccc(N[C@H]4CNCC[C@@H]4F)n3)n2nc1C(C)(O)C(F)(F)F` (single isomer, unassigned; fast-eluting) [Compound 134], for which the IC50 is under 0.5 nM in test [1]; 8640 nM in test [2]; 183 nM in test [3]; 1720 nM in test [4] (48 hours); 244 nM in test [5] (48 hours).

On to `COc1cc2ncc(-c3cccc(N[C@@H]4CCCNC4)n3)n2nc1C1CC1` [Compound 101], for which the IC50 in test [1] was under 0.5 nM; in test [2], 2320 nM; in test [3] it was 11 nM; in test [4] (Homo sapiens, MOLM-14, 48 h), 596 nM.

As to `COc1cc2ncc(-c3cccc(N[C@H]4CNC[C@@H]4F)n3)n2nc1-c1cnn(C)c1` [Compound 121, N-((3S,4S)-4-fluoropyrrolidin-3-yl)-6-(7-methoxy-6-(1-methyl-1H-pyrazol-4-yl)imidazo[1,2-b]pyridazin-3-yl)pyridin-2-amine], the IC50 stood at 1 nM in test [1]; 778 nM in test [2]; 11 nM in test [3]; 1370 nM in test [4] (Homo sapiens, MOLM-14, 48 h); 97 nM in test [5] (Homo sapiens, MOLM-14, 48 h).

As to `COc1cc2ncc(-c3cccc(N[C@@H]4CCNC4)n3)n2nc1C1(C(F)(F)F)CC1` [Compound 81, (R)-6-(7-methoxy-6-(1-(trifluoromethyl)cyclopropyl)imidazo[1,2-b]pyridazin-3-yl)-N-(pyrrolidin-3-yl)pyridin-2-amine], the IC50 in test [1] was determined as 2 nM; in test [2], 954 nM; in test [3], 25 nM; in test [5] (Homo sapiens, MOLM-14, 48 h) it was 591 nM.

Consider `COc1cc2ncc(-c3cccc(N[C@H]4CNCC[C@@H]4F)n3)n2nc1-c1cnn(C(F)F)c1` [Compound 130, 6-(6-(1-(difluoromethyl)-1H-pyrazol-4-yl)-7-methoxyimidazo[1,2-b]pyridazin-3-yl)-N-((3S,4S)-4-fluoropiperidin-3-yl)pyridin-2-amine], for which the half-maximal inhibitory concentration (IC50) was under 0.5 nM in test [1], 734 nM in test [2], 1370 nM in test [4] (48 hours) and 137 nM in test [5] (48 hours).

Take `COc1cc2ncc(-c3cccc(N[C@H]4CNCC[C@@H]4F)n3)n2nc1-c1cnn(C(F)F)c1` [Compound 129, 6-(6-(1-(difluoromethyl)-1H-pyrazol-4-yl)-7-methoxyimidazo[1,2-b]pyridazin-3-yl)-N-((3S,4S)-4-fluoropiperidin-3-yl)pyridin-2-amine]: the IC50 in test [1] was under 0.5 nM; in test [2], 1140 nM; in test [4] (Homo sapiens, MOLM-14, 48 h), 2170 nM; in test [5] (Homo sapiens, MOLM-14, 48 h), 154 nM.

Consider `F[C@H]1CNC[C@@H]1Nc1cccc(-c2cnc3cc(C4CC4)cnn23)n1` [Compound 111, 6-(7-cyclopropylimidazo[1,2-b]pyridazin-3-yl)-N-((3S,4S)-4-fluoropyrrolidin-3-yl)pyridin-2-amine], for which the IC50 in test [1] is 4 nM; in test [2], 774 nM; in test [3], 131 nM; in test [5] (Homo sapiens, MOLM-14, 48 h) it was 1010 nM.

Regarding `COc1cc2ncc(-c3cccc(N[C@H]4CNCC45CC5)n3)n2nc1C1CC1` [Compound 100, (R)-N-(6-(6-cyclopropyl-7-methoxyimidazo[1,2-b]pyridazin-3-yl)pyridin-2-yl)-5-azaspiro[2.4]heptan-7-amine], the IC50 in test [1] was under 0.5 nM; in test [2] it was 1380 nM; in test [3], under 0.5 nM; in test [5] (Homo sapiens, MOLM-14, 48 h), 20 nM.

Regarding `FC(F)COc1cnn2c(-c3cccc(N[C@H]4CNC[C@@H]4F)n3)cnc2c1` [Compound 114, 6-(7-(2,2-difluoroethoxy)imidazo[1,2-b]pyridazin-3-yl)-N-((3S,4S)-4-fluoropyrrolidin-3-yl)pyridin-2-amine], the IC50 stood at 3 nM in test [1]; 3470 nM in test [2]; 94 nM in test [3]; 326 nM in test [5] (Homo sapiens, MOLM-14, 48 h).

For `COc1cc2ncc(-c3cccc(N[C@@H]4CCCNC4)n3)n2nc1C1(C(F)(F)F)CC1` [Compound 84, (R)-6-(7-methoxy-6-(1-(trifluoromethyl)cyclopropyl)imidazo[1,2-b]pyridazin-3-yl)-N-(piperidin-3-yl)pyridin-2-amine], the IC50 in test [1] was determined as 1 nM; in test [2], 536 nM; in test [3] it was 83 nM; in test [5] (Homo sapiens, MOLM-14, 48 h), 179 nM.

As usually defined, the IC50 is the concentration at which inhibition is half-maximal. Low readings indicate greater potency, high ones weaker potency.
